Results: PubChem BioAssay AID743104 (Vanderbilt Specialized Chemistry Center, 2013)

target: Muscarinic acetylcholine receptor M5 (Rattus norvegicus) (UniProt P08911); test: rat M5 receptor negative allosteric modulators, selectivity assay for human M5 NAM project, cell-based, rat ortholog, CHO-K1, Fluo-4 calcium flux (AID 743104); conditions: CHO-K1 rat M5, Fluo-4 calcium flux, ACh EC20
Sequence (P08911 whole entry, looked up): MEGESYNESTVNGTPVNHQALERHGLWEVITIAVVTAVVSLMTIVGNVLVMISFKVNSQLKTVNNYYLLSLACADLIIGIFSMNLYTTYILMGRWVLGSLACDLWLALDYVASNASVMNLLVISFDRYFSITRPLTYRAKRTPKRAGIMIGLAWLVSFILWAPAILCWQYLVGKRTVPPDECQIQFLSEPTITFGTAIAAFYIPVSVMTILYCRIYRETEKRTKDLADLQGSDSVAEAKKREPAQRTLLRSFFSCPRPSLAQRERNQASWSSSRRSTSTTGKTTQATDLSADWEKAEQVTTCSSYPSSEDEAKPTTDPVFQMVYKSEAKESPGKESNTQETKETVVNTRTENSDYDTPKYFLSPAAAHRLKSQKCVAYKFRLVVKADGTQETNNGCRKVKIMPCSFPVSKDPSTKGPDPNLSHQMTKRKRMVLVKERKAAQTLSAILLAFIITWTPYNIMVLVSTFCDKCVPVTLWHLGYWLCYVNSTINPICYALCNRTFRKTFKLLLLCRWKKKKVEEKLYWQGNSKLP

SMILES	IC50
O=C(c1ccc(F)cc1)N1CCN2C(=O)c3ccccc3C12c1ccccc1 (stereo not drawn)	6.21 µM
O=C(c1cc(F)cc(F)c1)N1CCN2C(=O)c3ccccc3C12c1ccc(Cl)cc1 (stereo not drawn)	3.54 µM
O=C(c1ccc(F)c(F)c1)N1CCN2C(=O)c3ccccc3C12c1ccccc1 (stereo not drawn)	2 µM
